Reference: ChEMBL document CHEMBL1201861, “Genomics of Drug Sensitity in Cancer screening data, Wellcome Trust Sanger Institute”

How the values were obtained:
Test in all cases: cells
Conditions in all cases: Homo sapiens
[1] = test system: 697; type: functional, cell-based
Description: SANGER: Inhibition of human 697 cell growth in a cell viability assay.

[2] = test system: SF-126; type: functional, cell-based;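 further: growth inhibition of human SF126 cells, read out with a cell viability assay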
Description: SANGER: Inhibition of human SF126 cell growth in a cell viability assay.

[3] = test system: DMS-114; type: functional, cell-based
[4] = test system: LS-411N; type: functional, cell-based
[5] = test system: MMAC-SF; type: functional, cell-based;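 further: growth inhibition of human MMAC-SF cells, read out with a cell viability assay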
Description: SANGER: Inhibition of human MMAC-SF cell growth in a cell viability assay.

[6] = test system: A4-Fuk; type: functional, cell-based;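 further: growth inhibition of A4-Fuk cells, read out by a cell viability assay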
Description: SANGER: Inhibition of human A4-Fuk cell growth in a cell viability assay.

[7] = test system: TK-10; type: functional, cell-based;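 further: growth inhibition of TK-10 cells, read out in a cell viability assay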
Description: SANGER: Inhibition of human TK10 cell growth in a cell viability assay.

[8] = test system: DU-4475; type: functional, cell-based
Description: SANGER: Inhibition of human DU-4475 cell growth in a cell viability assay.

[9] = test system: GI-1; type: functional, cell-based;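 further: growth inhibition of human GI-1 cells, measured with a cell viability readout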
Description: SANGER: Inhibition of human GI-1 cell growth in a cell viability assay.

[10] = test system: KM12; type: functional, cell-based;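 further: KM12 cell growth inhibition, read out with a cell viability assay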
Description: SANGER: Inhibition of human KM12 cell growth in a cell viability assay.

[11] = test system: LS-1034; type: functional, cell-based
Description: SANGER: Inhibition of human LS-1034 cell growth in a cell viability assay.

[12] = test system: A101D; type: functional, cell-based;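 further: growth inhibition of the cell line, measured with a viability assay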
Description: SANGER: Inhibition of human A101D cell growth in a cell viability assay.

[13] = test system: JVM-3; type: functional, cell-based;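 further: growth inhibition of human JVM-3 cells, read out with a cell viability assay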
Description: SANGER: Inhibition of human JVM-3 cell growth in a cell viability assay.

[14] = test system: OCI-AML2; type: functional, cell-based;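 further: growth inhibition of OCI-AML2 cells, read out with a cell viability assay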
Description: SANGER: Inhibition of human OCI-AML2 cell growth in a cell viability assay.

[15] = test system: ONS-76; type: functional, cell-based;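 further: growth inhibition of human ONS-76 cells, read out with a cell viability assay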
Description: SANGER: Inhibition of human ONS-76 cell growth in a cell viability assay.

[16] = test system: KLE; type: functional, cell-based;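 further: growth inhibition of human KLE cells, read out with a cell viability assay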
Description: SANGER: Inhibition of human KLE cell growth in a cell viability assay.

[17] = test system: HuTu80; type: functional, cell-based, HUTU-80;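 further: growth inhibition of HuTu80 human cells, determined with a cell viability readout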
Description: SANGER: Inhibition of human HUTU-80 cell growth in a cell viability assay.

[18] = test system: RPMI-8866; type: functional, cell-based
Description: SANGER: Inhibition of human RPMI-8866 cell growth in a cell viability assay.

[19] = test system: COLO-824; type: functional, cell-based
Description: SANGER: Inhibition of human COLO-824 cell growth in a cell viability assay.

[20] = test system: UACC-257; type: functional, cell-based
Description: SANGER: Inhibition of human UACC-257 cell growth in a cell viability assay.

[21] = test system: TE-10; type: functional, cell-based;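 further: growth inhibition of TE-10 cells, measured by a cell viability assay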
Description: SANGER: Inhibition of human TE-10 cell growth in a cell viability assay.

[22] = test system: NCI-H226; type: functional, cell-based;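 further: cell viability read-out used to gauge growth inhibition of the cells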
Description: SANGER: Inhibition of human NCI-H226 cell growth in a cell viability assay.

[23] = test system: TE-6; type: functional, cell-based;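 further: growth inhibition of TE-6 cells, read out with a cell viability assay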
Description: SANGER: Inhibition of human TE-6 cell growth in a cell viability assay.

[24] = test system: DOHH-2; type: functional, cell-based;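 further: growth inhibition of human DOHH-2 cells, read out with a cell viability assay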
Description: SANGER: Inhibition of human DOHH-2 cell growth in a cell viability assay.

[25] = test system: MHH-PREB-1; type: functional, cell-based;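 further: cell viability assay measuring inhibition of proliferation of human MHH-PREB-1 cells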
Description: SANGER: Inhibition of human MHH-PREB-1 cell growth in a cell viability assay.

[26] = test system: NCI-H1395; type: functional, cell-based;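 further: cell viability assay read-out quantifying reduced proliferation of human NCI-H1395 cells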
Description: SANGER: Inhibition of human NCI-H1395 cell growth in a cell viability assay.

[27] = test system: SK-PN-DW; type: functional, cell-based;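 further: growth inhibition measured with a viability assay on these cells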
Description: SANGER: Inhibition of human SK-PN-DW cell growth in a cell viability assay.

[28] = test system: SNU-C2B; type: functional, cell-based;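 further: cell viability readout used to measure compound-driven suppression of SNU-C2B cell proliferation, IC50 marking half-maximal growth inhibition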
Description: SANGER: Inhibition of human SNU-C2B cell growth in a cell viability assay.

[29] = test system: KM-H2; type: functional, cell-based;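 further: growth inhibition of KM-H2 cells, read out by a cell viability assay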
Description: SANGER: Inhibition of human KM-H2 cell growth in a cell viability assay.

[30] = test system: HCE-4; type: functional, cell-based;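 further: cell viability assay measuring inhibition of growth in the human HCE-4 cell line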
Description: SANGER: Inhibition of human HCE-4 cell growth in a cell viability assay.

[31] = test system: ES1; type: functional, cell-based;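 further: growth inhibition of ES1 cells, read out with a cell viability assay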
Description: SANGER: Inhibition of human ES1 cell growth in a cell viability assay.

[32] = test system: C2BBe1; type: functional, cell-based;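 further: growth inhibition of C2BBe1 cells, read out through a viability assay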
Description: SANGER: Inhibition of human C2BBe1 cell growth in a cell viability assay.

[33] = test system: COLO-829; type: functional, cell-based
Description: SANGER: Inhibition of human COLO-829 cell growth in a cell viability assay.

[34] = test system: TGBC24TKB; type: functional, cell-based;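 further: growth inhibition of human TGBC24TKB cells, read out with a cell viability assay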
Description: SANGER: Inhibition of human TGBC24TKB cell growth in a cell viability assay.

[35] = test system: BB65-RCC; type: functional, cell-based;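 further: growth inhibition of the cell line, measured with a cell viability assay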
Description: SANGER: Inhibition of human BB65-RCC cell growth in a cell viability assay.

[36] = test system: HT; type: functional, cell-based
Description: SANGER: Inhibition of human HT cell growth in a cell viability assay.

[37] = test system: U-87 MG; type: functional, cell-based, U-87MG ATCC;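 further: growth inhibition of the cells measured with a viability assay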
Description: SANGER: Inhibition of human U-87-MG cell growth in a cell viability assay.

[38] = test system: KNS-81-FD; type: functional, cell-based;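 further: growth inhibition of KNS-81-FD cells, read out with a cell viability assay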
Description: SANGER: Inhibition of human KNS-81-FD cell growth in a cell viability assay.

[39] = test system: SNB-75; type: functional, cell-based;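 further: cell viability assay measuring growth inhibition of human SNB-75 cells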
Description: SANGER: Inhibition of human SNB75 cell growth in a cell viability assay.

[40] = test system: L-428; type: functional, cell-based
Description: SANGER: Inhibition of human L-428 cell growth in a cell viability assay.

[41] = test system: SHP77; type: functional, cell-based, SHP-77;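 further: growth inhibition of human SHP-77 cells measured by a cell viability assay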
Description: SANGER: Inhibition of human SHP-77 cell growth in a cell viability assay.

[42] = test system: ETK-1; type: functional, cell-based;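 further: growth inhibition of human ETK-1 cells, read out with a cell viability assay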
Description: SANGER: Inhibition of human ETK-1 cell growth in a cell viability assay.

[43] = test system: ES4; type: functional, cell-based;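 further: growth inhibition of human ES4 cells, read out by a cell viability assay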
Description: SANGER: Inhibition of human ES4 cell growth in a cell viability assay.

[44] = test system: HCE-T; type: functional, cell-based;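 further: cell viability assay read-out, reporting inhibition of HCE-T cell growth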
Description: SANGER: Inhibition of human HCE-T cell growth in a cell viability assay.

[45] = test system: COLO-668; type: functional, cell-based
Description: SANGER: Inhibition of human COLO-668 cell growth in a cell viability assay.

[46] = test system: QIMR-WIL; type: functional, cell-based;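 further: growth inhibition of QIMR-WIL cells, read out with a cell viability assay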
Description: SANGER: Inhibition of human QIMR-WIL cell growth in a cell viability assay.

[47] = test system: Ramos-2G6-4C10; type: functional, cell-based;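 further: growth inhibition of the cell line, measured by a cell viability read-out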
Description: SANGER: Inhibition of human Ramos-2G6-4C10 cell growth in a cell viability assay.

[48] = test system: NB69; type: functional, cell-based;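 further: growth inhibition of NB69 cells, determined by a cell viability assay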
Description: SANGER: Inhibition of human NB69 cell growth in a cell viability assay.

[49] = test system: SW 954; type: functional, cell-based;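 further: growth inhibition of SW954 human cancer cells, read out as cell viability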
Description: SANGER: Inhibition of human SW954 cell growth in a cell viability assay.

[50] = test system: A388; type: functional, cell-based;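 further: growth inhibition of human A388 cells, read out with a cell viability assay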
Description: SANGER: Inhibition of human A388 cell growth in a cell viability assay.

[51] = test system: MFH-ino; type: functional, cell-based;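 further: growth inhibition of human MFH-ino cells, read out by a cell viability assay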
Description: SANGER: Inhibition of human MFH-ino cell growth in a cell viability assay.

[52] = test system: ML-2; type: functional, cell-based;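 further: growth inhibition of ML-2 cells, measured with a cell viability readout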
Description: SANGER: Inhibition of human ML-2 cell growth in a cell viability assay.

[53] = test system: ACN; type: functional, cell-based;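 further: growth inhibition of the human ACN cell line, read out via cell viability testing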
Description: SANGER: Inhibition of human ACN cell growth in a cell viability assay.

[54] = test system: BB30-HNC; type: functional, cell-based;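 further: growth inhibition of the cultured cell line, read out by a cell viability assay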
Description: SANGER: Inhibition of human BB30-HNC cell growth in a cell viability assay.

[55] = test system: GT3TKB; type: functional, cell-based;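 further: growth inhibition of the cell line, read out with a cell viability assay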
Description: SANGER: Inhibition of human GT3TKB cell growth in a cell viability assay.

[56] = test system: NB6; type: functional, cell-based;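 further: growth inhibition of NB6 cells, read out by a cell viability assay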
Description: SANGER: Inhibition of human NB6 cell growth in a cell viability assay.

[57] = test system: K562; type: functional, cell-based
Description: SANGER: Inhibition of human K-562 cell growth in a cell viability assay.

[58] = test system: CCRF-CEM; type: functional, cell-based;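 further: inhibition of CCRF-CEM cell growth, measured by a cell viability assay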
Description: SANGER: Inhibition of human CCRF-CEM cell growth in a cell viability assay.

[59] = test system: ES3; type: functional, cell-based;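 further: growth inhibition of ES3 cells, read out with a cell viability assay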
Description: SANGER: Inhibition of human ES3 cell growth in a cell viability assay.

[60] = test system: LXF-289 cell line; type: functional, cell-based
Description: SANGER: Inhibition of human LXF-289 cell growth in a cell viability assay.

[61] = test system: LOX IMVI; type: functional, cell-based
Description: SANGER: Inhibition of human LOXIMVI cell growth in a cell viability assay.

[62] = test system: LB831-BLC; type: functional, cell-based;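 further: growth inhibition of LB831-BLC cells, read out with a cell viability assay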
Description: SANGER: Inhibition of human LB831-BLC cell growth in a cell viability assay.

[63] = test system: LB1047-RCC; type: functional, cell-based
Description: SANGER: Inhibition of human LB1047-RCC cell growth in a cell viability assay.

[64] = test system: IA-LM; type: functional, cell-based
Description: SANGER: Inhibition of human IA-LM cell growth in a cell viability assay.

[65] = test system: NB5; type: functional, cell-based
Description: SANGER: Inhibition of human NB5 cell growth in a cell viability assay.

Measured: IC50

C[C@]1(c2nc3c(C(N)=O)cccc3[nH]2)CCCN1 [VELIPARIB]
> 5 µM: [1] | [2] | [3] | [4] | [5] | [6] | [7] | [8] | [9] | [10] | [11] | [12] | [13] | [14] | [15] | [16] | [17] | [18] | [19] | [20] | [21] | [22] | [23] | [24] | [25] | [26] | [27] | [28] | [29] | [30] | [31] | [32] | [33] | [34] | [35] | [36] | [37] | [38] | [39] | [40] | [41] | [42] | [43] | [44] | [45] | [46] | [47] | [48] | [49] | [50] | [51] | [52] | [53] | [54] | [55] | [56] | [57] | [58] | [59] | [60] | [61] | [62] | [63] | [64] | [65]
